In patent US9873696B2, “Neprilysin inhibitors” (THERAVANCE BIOPHARMA R&D IP, LLC, priority 2010, dated 2018):

Each compound was assayed against T1, human NEP (Homo sapiens, UniProt P08473) (assay: In vitro enzyme inhibition assay at human NEP (Assay 1)). Conditions: recombinant enzyme, fluorogenic peptide substrate, 37° C.
T1 construct: purchased R&D Systems, Minneapolis, Minn; 1182-ZN
Assay type: biochemical
Method: In Vitro Assays for the Quantitation of Inhibitor Potencies (IC50) at Human and Rat NEP, and Human ACE
The inhibitory activities of compounds at human and rat neprilysin (EC 3.4.24.11; NEP) and human angiotensin converting enzyme (ACE) were determined using in vitro assays as described below.
Recombinant human NEP and recombinant human ACE were obtained commercially (R&D Systems, Minneapolis, Minn., catalog numbers 1182-ZN and 929-ZN, respectively). The fluorogenic peptide substrate Mca-D-Arg-Arg-Leu-Dap-(Dnp)-OH (Medeiros et al. (1997) Braz. J. Med. Biol. Res. 30:1157-62; Anaspec, San Jose, Calif.) and Abz-Phe-Arg-Lys(Dnp)-Pro-OH (Araujo et al. (2000) Biochemistry 39:8519-8525; Bachem, Torrance, Calif.) were used in the NEP and ACE assays respectively.
The assays were performed in 384-well white opaque plates at 37° C. using the fluorogenic peptide substrates at a concentration of 10 μM in Assay Buffer (NEP: 50 mM HEPES, pH 7.5, 100 mM NaCl, 0.01% polyethylene glycol sorbitan monolaurate (Tween-20), 10 μM ZnSO4; ACE: 50 mM HEPES, pH 7.5, 100 mM NaCl, 0.01% Tween-20, 1 μM ZnSO4).
Test compounds were assayed over the range of concentrations from […] to 20 μM. Test compounds were added to the enzymes and incubated for 30 minute at 37° C. prior to initiating the reaction by the addition of substrate. Reactions were terminated after 20 minutes of incubation at 37° C. by the addition of glacial acetic acid to a final concentration of 3.6% (v/v).
Plates were read on a fluorometer with excitation and emission wavelengths set to 320 nm and 405 nm, respectively. Inhibition constants were obtained by nonlinear regression of the data using the equation (GraphPad Software, Inc., San Diego, Calif.): v=v0/[1+(I/K′)] where v is the reaction rate, v0 is the uninhibited reaction rate, I is the inhibitor concentration and K′ is the apparent inhibition constant.
Compounds of the invention were tested in this assay and found to have pKi values at human NEP as follows.

T1 sequence (P08473 whole entry): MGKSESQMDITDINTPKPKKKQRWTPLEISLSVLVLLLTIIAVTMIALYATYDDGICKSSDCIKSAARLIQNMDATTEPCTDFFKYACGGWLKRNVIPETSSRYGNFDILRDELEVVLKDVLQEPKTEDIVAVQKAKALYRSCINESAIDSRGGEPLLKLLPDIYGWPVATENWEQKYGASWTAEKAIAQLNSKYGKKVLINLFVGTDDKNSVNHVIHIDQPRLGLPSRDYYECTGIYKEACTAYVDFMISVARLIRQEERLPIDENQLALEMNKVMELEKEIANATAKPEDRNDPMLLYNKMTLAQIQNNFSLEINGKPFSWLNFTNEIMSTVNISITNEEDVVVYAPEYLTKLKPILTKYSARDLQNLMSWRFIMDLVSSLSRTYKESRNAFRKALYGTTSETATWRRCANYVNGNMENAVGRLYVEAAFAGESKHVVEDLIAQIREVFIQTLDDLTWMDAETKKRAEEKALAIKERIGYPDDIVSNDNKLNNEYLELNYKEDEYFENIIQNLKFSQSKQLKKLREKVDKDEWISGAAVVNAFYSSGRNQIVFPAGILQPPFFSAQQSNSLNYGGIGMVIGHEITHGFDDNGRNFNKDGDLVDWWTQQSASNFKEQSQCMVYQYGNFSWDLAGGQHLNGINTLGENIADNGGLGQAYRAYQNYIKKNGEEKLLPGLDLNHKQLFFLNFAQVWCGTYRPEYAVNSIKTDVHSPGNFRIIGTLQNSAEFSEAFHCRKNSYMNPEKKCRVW

Row | Ki [nM] | SMILES
1 | 12.6 to 100 | O=C(NN(Cc1ccc(-c2cccc(Cl)c2)cc1)C[C@@H](O)C(=O)O)c1cc(O)nc(O)n1 [Example 4-36, (R)-3-[N-(3′-Chlorobiphenyl-4-ylmethyl)-N′-(2,6-dihydroxy-pyrimidine-4-carbonyl)-hydrazino]-2-hydroxy-propionic acid]
2 | 12.6 to 100 | O=C(NN(Cc1ccc(-c2ccccc2)cc1)C[C@@H](O)C(=O)O)c1cnn[nH]1 [Example 2-21, (R)-3-[N-Biphenyl-4-ylmethyl-N′-(3H-[1,2,3]triazole-4-carbonyl)hydrazino]-2-hydroxypropionic acid]
3 | 1.26 to 10 | O=C(NN(Cc1ccc(-c2cccc(Cl)c2F)cc1)C[C@@H](O)C(=O)O)c1cc(O)no1 [Example 8-21, (R)-3-[N-(3′-Chloro-2′-fluoro-biphenyl-4-ylmethyl)-N′-(3-hydroxy-isoxazole-5-carbonyl)-hydrazino]-2-hydroxy-propionic acid]
4 | 12.6 to 100 | O=C(NN(Cc1ccc(-c2cc(Cl)cc(Cl)c2)cc1)C[C@@H](O)C(=O)O)c1cn(O)nn1 [Example 8-81, (R)-3-[N-(3′,5′-Dichloro-biphenyl-4-ylmethyl)-N′-(1-hydroxy-1H-[1,2,3]triazole-4-carbonyl)-hydrazino]-2-hydroxy-propionic acid]
5 | 1.26 to 10 | O=C(NN(Cc1ccc(-c2cccc(Cl)c2)cc1)C[C@@H](O)C(=O)O)c1ccc2[nH]nnc2c1F [Example 4-42, (R)-3-[N-(3′-Chlorobiphenyl-4-ylmethyl)-N′-(4-fluoro-1H-benzotriazole-5-carbonyl)-hydrazino]-2-hydroxy-propionic acid]
6 | ≤ 1 | O=C(NN(Cc1ccc(-c2cccc(Cl)c2)cc1)C[C@@H](O)C(=O)O)c1cc(C(=O)N2CCCC2)n[nH]1 [Example 4-11, (R)-3-{N-(3′-Chlorobiphenyl-4-ylmethyl)-N′-[5-(pyrrolidine-1-carbonyl)-2H-pyrazole-3-carbonyl]-hydrazino}-2-hydroxy-propionic acid]
7 | ≤ 1 | O=C(NN(Cc1ccc(-c2cc(Cl)ccc2F)cc1)C[C@@H](O)C(=O)O)c1ccc(=O)[nH]n1 [Example 8-58, (R)-3-[N-(5′-Chloro-2′-fluoro-biphenyl-4-ylmethyl)-N′-(6-oxo-1,6-dihydro-pyridazine-3-carbonyl)-hydrazino]-2-hydroxy-propionic acid]
8 | 1.26 to 10 | O=C(O)Cn1nc(C(=O)NN(Cc2ccc(-c3cc(Cl)ccc3F)cc2)C[C@@H](O)C(=O)O)cc1C1CC1 [Example 8-53, (R)-3-[N′-(1-Carboxymethyl-5-cyclopropyl-1H-pyrazole-3-carbonyl)-N-(5′-chloro-2′-fluoro-biphenyl-4-ylmethyl)-hydrazino]-2-hydroxy-propionic acid]
9 | ≤ 1 | Cc1ccc(Cl)cc1-c1ccc(CN(C[C@@H](O)C(=O)O)NC(=O)c2nnn[nH]2)cc1 [Example 8-59, (R)-3-[N-(5′-Chloro-2′-methyl-biphenyl-4-ylmethyl)-N′-(1H-tetrazole-5-carbonyl)-hydrazino]-2-hydroxy-propionic acid]
10 | 1.26 to 10 | O=C(NN(Cc1ccc(-c2cccc(Cl)c2O)cc1)C[C@@H](O)C(=O)O)c1cc(O)no1 [Example 8-7, (R)-3-[N-(3′-Chloro-2′-hydroxy-biphenyl-4-ylmethyl)-N′-(3-hydroxy-isoxazole-5-carbonyl)-hydrazino]-2-hydroxy-propionic acid]
11 | 1.26 to 10 | O=C(NN(Cc1ccc(-c2ccccc2)cc1F)C[C@@H](O)C(=O)O)c1cc(O)no1 [Example 10-1, (R)-3-[N-(3-Fluoro-biphenyl-4-ylmethyl)-N′-(3-hydroxy-isoxazole-5-carbonyl)-hydrazino]-2-hydroxy-propionic acid]
12 | ≤ 1 | O=C(NN(Cc1ccc(-c2cccc(Cl)c2)cc1F)C[C@@H](O)C(=O)O)c1cn(O)nn1 [Example 10-9, (R)-3-[N-(3′-Chloro-3-fluoro-biphenyl-4-ylmethyl)-N′-(1-hydroxy-1H-[1,2,3]triazole-4-carbonyl)-hydrazino]-2-hydroxy-propionic acid]
13 | 1.26 to 10 | O=C(NN(Cc1ccc(-c2cc(Cl)ccc2F)cc1)C[C@@H](O)C(=O)O)c1cc(O)n(-c2ccccn2)n1 [Example 8-51, (R)-3-[N-(5′-Chloro-2′-fluoro-biphenyl-4-ylmethyl)-N′-(5-hydroxy-1-pyridin-2-yl-1H-pyrazole-3-carbonyl)-hydrazino]-2-hydroxy-propionic acid]
14 | 1.26 to 10 | O=C(NN(Cc1ccc(-c2cc(Cl)ccc2F)cc1)C[C@@H](O)C(=O)O)c1cc(O)n(-c2ccccc2F)n1 [Example 8-52, (R)-3-{N-(5′-Chloro-2′-fluoro-biphenyl-4-ylmethyl)-N′-[1-(2-fluoro-phenyl)-5-hydroxy-1H-pyrazole-3-carbonyl]-hydrazino}-2-hydroxy-propionic acid]
15 | 1.26 to 10 | Cc1cc(C(=O)NN(Cc2ccc(-c3cc(Cl)ccc3F)cc2)C[C@@H](O)C(=O)O)cc2[nH]nnc12 [Example 8-68, (R)-3-[N-(5′-Chloro-2′-fluoro-biphenyl-4-ylmethyl)-N′-(7-methyl-3H-benzotriazole-5-carbonyl)-hydrazino]-2-hydroxy-propionic acid]
16 | 1.26 to 10 | O=C(NN(Cc1ccc(-c2ccccc2)cc1)C[C@@H](O)C(=O)O)c1cc(C(=O)N2CC=CC2)n[nH]1 [Example 2-13, (R)-3-{N-Biphenyl-4-ylmethyl-N′-[5-(2,5-dihydro-pyrrole-1-carbonyl)-2H-pyrazole-3-carbonyl]hydrazino}-2-hydroxypropionic acid]
17 | 1.26 to 10 | COc1ccccc1-c1ccc(CN(C[C@@H](O)C(=O)O)NC(=O)c2nnn[nH]2)cc1 [Example 5-10, (R)-2-Hydroxy-3-[N-(2′-methoxy-biphenyl-4-ylmethyl)-N′-(1H-tetrazole-5-carbonyl)-hydrazino]-propionic acid]
18 | ≤ 1 | O=C(NN(Cc1ccc(-c2cc(O)cc(Cl)c2)cc1)C[C@H](O)C(=O)O)c1cc(O)no1 [Example 8-27, (S)-3-[N-(5′-Chloro-3′-hydroxy-biphenyl-4-ylmethyl)-N′-(3-hydroxy-isoxazole-5-carbonyl)-hydrazino]-2-hydroxy-propionic acid]
19 | ≤ 1 | O=C(NN(Cc1ccc(-c2cc(Cl)ccc2F)cc1Cl)C[C@@H](O)C(=O)O)c1cc(O)no1 [Example 10-7, (R)-3-[N-(3,5′-Dichloro-2′-fluoro-biphenyl-4-ylmethyl)-N′-(3-hydroxy-isoxazole-5-carbonyl)-hydrazino]-2-hydroxy-propionic acid]
20 | ≤ 1 | O=C(NN(Cc1ccc(-c2cc(Cl)ccc2F)cc1)C[C@@H](O)C(=O)O)c1cc(-c2cnccn2)[nH]n1 [Example 8-50, (R)-3-[N-(5′-Chloro-2′-fluoro-biphenyl-4-ylmethyl)-N′-(5-pyrazin-2-yl-1H-pyrazole-3-carbonyl)-hydrazino]-2-hydroxy-propionic acid]
21 | 1.26 to 10 | O=C(O)c1cc(C(=O)NN(Cc2ccc(-c3ccccc3)cc2)C[C@H](O)C(=O)O)[nH]n1 [Example 2-1, 5-[N′-Biphenyl-4-ylmethyl-N′-((S)-2-carboxy-2-hydroxyethyl)-hydrazinocarbonyl]-1H-pyrazole-3-carboxylic acid]
22 | 1.26 to 10 | O=C(NN(Cc1ccc(-c2cccc(Cl)c2)cc1F)C[C@@H](O)C(=O)O)c1nnn[nH]1 [Example 10-8, (R)-3-[N-(3′-Chloro-3-fluoro-biphenyl-4-ylmethyl)-N′-(1H-tetrazole-5-carbonyl)-hydrazino]-2-hydroxy-propionic acid]
23 | 1.26 to 10 | N#Cc1cc(-c2cccc(Cl)c2)ccc1CN(C[C@@H](O)C(=O)O)NC(=O)c1cc(O)no1 [Example 10-2, (R)-3-[N-(3′-Chloro-3-cyano-biphenyl-4-ylmethyl)-N′-(3-hydroxy-isoxazole-5-carbonyl)-hydrazino]-2-hydroxy-propionic acid]
24 | ≤ 1 | COc1cc(C(=O)NN(Cc2ccc(-c3cc(Cl)ccc3F)cc2)C[C@@H](O)C(=O)O)on1 [Example 8-9, (R)-3-[N-(5′-Chloro-2′-fluoro-biphenyl-4-ylmethyl)-N′-(3-methoxy-isoxazole-5-carbonyl)-hydrazino]-2-hydroxy-propionic acid]
25 | ≤ 1 | O=C(NN(Cc1ccc(-c2cccc(Cl)c2)cc1)C[C@@H](O)C(=O)O)c1cnc(O)nc1 [Example 4-34, (R)-3-[N-(3′-Chlorobiphenyl-4-ylmethyl)-N′-(2-hydroxy-pyrimidine-5-carbonyl)-hydrazino]-2-hydroxy-propionic acid]
26 | ≤ 1 | O=C(NN(Cc1ccc(-c2cc(Cl)ccc2F)cc1)C[C@@H](O)C(=O)O)c1cc(-c2cccc(Cl)c2)no1 [Example 8-16, (R)-3-{N-(5′-Chloro-2′-fluoro-biphenyl-4-ylmethyl)-N′-[3-(3-chloro-phenyl)-isoxazole-5-carbonyl]-hydrazino}-2-hydroxy-propionic acid]
